Test results as given in patent US20250361241A1, “HPK1 INHIBITOR AND MEDICAL USE THEREOF” (Betta Pharmaceuticals Co., Ltd., priority 2022, published 2025).

Molecular target: HPK1 (Homo sapiens (Human), UniProt Q92918)
Test: HPK1 enzyme activity detection (1 mM ATP system), ADP-Glo with MBP substrate, Pharmacological Experiment 2
Type: biochemical
Method: (§1) Pharmacological Experiment 2: […] The test compound was serially diluted using DMSO to 200 times the detection concentration. […] Centrifuge at 1000×g for 30 seconds and incubate at 25° C. for 15 minutes. • (5) Adding ATP and substrate: Add 2 μL of 2×ATP-MBP solution to the 384-well plate and centrifuge at 1000×g for 30 seconds. Seal the plate with a sealing film and incubate at 25° C. for 60 minutes. • (6) Add ADP-Glo reagent: Add 4 μL ADP-Glo reagent (Promega, V9103) to the 384-well plate, centrifuge at 1000×g for 30 seconds, and incubate at 25° C. for 60 minutes. • (7) Detection of luminescent signal; Add 8 μL of luminescent detection reagent (Promega, V9103) to a 384-well plate, centrifuge at 1000×g for 30 seconds, and incubate at 25° C. for 60 minutes. The chemiluminescent signal was read using a BMG instrument. • (8) Calculation of percentage inhibition rate: […] See Table 2 for the enzymatic IC 50 data of the example compounds on HPK1.

Sequence of HPK1 (Q92918 whole entry, species assumed): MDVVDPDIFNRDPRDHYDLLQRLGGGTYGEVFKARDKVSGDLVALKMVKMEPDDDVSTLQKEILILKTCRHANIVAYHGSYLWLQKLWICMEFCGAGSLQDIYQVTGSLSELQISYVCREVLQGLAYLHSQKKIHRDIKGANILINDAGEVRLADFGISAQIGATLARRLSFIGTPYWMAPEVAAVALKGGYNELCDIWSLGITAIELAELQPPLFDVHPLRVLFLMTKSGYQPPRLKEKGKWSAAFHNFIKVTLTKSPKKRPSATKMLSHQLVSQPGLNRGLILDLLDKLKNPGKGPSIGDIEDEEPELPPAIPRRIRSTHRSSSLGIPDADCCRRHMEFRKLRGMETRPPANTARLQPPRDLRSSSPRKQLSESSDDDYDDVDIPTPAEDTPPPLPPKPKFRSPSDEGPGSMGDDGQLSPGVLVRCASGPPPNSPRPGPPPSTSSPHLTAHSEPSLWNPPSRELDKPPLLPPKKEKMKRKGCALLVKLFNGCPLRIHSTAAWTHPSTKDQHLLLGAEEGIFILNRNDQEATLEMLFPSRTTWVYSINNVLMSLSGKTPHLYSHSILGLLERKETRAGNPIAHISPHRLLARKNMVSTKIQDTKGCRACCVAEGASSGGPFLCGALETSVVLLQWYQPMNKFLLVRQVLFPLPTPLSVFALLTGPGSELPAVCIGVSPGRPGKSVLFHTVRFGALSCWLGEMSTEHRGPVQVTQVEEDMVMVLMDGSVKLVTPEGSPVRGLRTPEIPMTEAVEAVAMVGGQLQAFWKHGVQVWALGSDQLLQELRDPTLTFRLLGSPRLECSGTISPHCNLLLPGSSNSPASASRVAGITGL

| Molecule | IC50 [nM] |
| --- | --- |
| 4-(8-FLUORO-7-METHYLIMIDAZO[1,2-A]PYRIDIN-3-YL)-7-((2,3,5,6,7′,8′-HEXAHYDRO-6′H-SPIRO[PYRAN-4, 5′-[1,7]NAPHTHYRIDINE]-2′-YL)AMINO)ISOINDOL-1-ONE [Compound 149] | 4.42 |
| 7-((2,3,5,6,7′,8′-HEXAHYDRO-6′-H-PYRANO[4,5′-[1,7]NAPHTHYRIDINE]-2′-YL)AMINO)-4-(7-(TRIFLUOROMETHYL)IMIDAZO[1,2-A]PYRIDIN-3-YL)ISOINDOL-1-ONE [Compound 147] | 22 |
| CN(C)C1CCC2(CCOCC2)c2ccc(Nc3ccc(-c4cnc5cc(F)ccn45)c4c3C(=O)NC4)nc21 (stereo not drawn) [Compound 3] | 4.16 |
| Cc1cc(Nc2ccc(-c3cnc4cc(F)ccn34)c3c2C(=O)NC3)nc2c1C1(CCOCC1)C[C@H]2N(C)C [Compound 28, (R)-7-((7-(DIMETHYLAMINO)-4-METHYL-2′,3′,5′,6,6′,7-HEXAHYDROSPIRO[B]PYRIDIN-5,4′-PYRAN]-2-YL)AMINO)-4-(7-FLUOROIMIDAZO[1,2-A]PYRIDIN-3-YL)ISOINDOLIN-1-ONE] | 1.27 |
| Cc1cc(Nc2ccc(-c3cnn4cc(F)ccc34)c3c2C(=O)NC3)nc2c1C1(CCOCC1)C[C@H]2N(C)C [Compound 29] | 1.98 |
| O=C1NCc2c(-c3cnc4cc(F)ccn34)ccc(Nc3ccc4c(n3)C(N3CCC(F)(F)C3)CC43CCOCC3)c21 (stereo not drawn) [Compound 72, 7-((7-(3,3-DIFLUOROPYRROLIDIN-1-YL)-2′,3′,5′6,6′,7-HEXAHYDROSPIRO[B]PYRIDINE-5,4′-PYRAN]-2-YL)AMINO)-4-(7-FLUOROIMIDAZOLE[1,2-A]PYRIDIN-3-YL)ISOINDOL-1-ONE] | 143 |
| CC(=O)N1CCN(C2CC3(CCOCC3)c3ccc(Nc4ccc(-c5cnc6cc(F)ccn56)c5c4C(=O)NC5)nc32)CC1 (stereo not drawn) [Compound 92] | 75.2 |
| CC1(O)CCN(C2CC3(CCOCC3)c3ccc(Nc4ccc(-c5cnc6cc(F)ccn56)c5c4C(=O)NC5)nc32)CC1 (stereo not drawn) [Compound 95] | 6.36 |
| CC1(C)CN(C2CC3(CCOCC3)c3ccc(Nc4ccc(-c5cnc6cc(F)ccn56)c5c4C(=O)NC5)nc32)CCO1 (stereo not drawn) [Compound 96] | 72.5 |
| C[C@H]1CN(C2CC3(CCOCC3)c3ccc(Nc4ccc(-c5cnc6cc(F)ccn56)c5c4C(=O)NC5)nc32)CCO1 (stereo partly drawn) [Compound 97] | 7.5 |
| O=C1NCc2c(-c3cnc4cc(F)ccn34)ccc(Nc3ccc4c(n3)C(N3CCNCC3)CC43CCOCC3)c21 (stereo not drawn) [Compound 99] | 171 |
| CN1Cc2nc(Nc3ccc(-c4cnc5cc(F)ccn45)c4c3C(=O)NC4)ccc2C2(CCOCC2)C1 [Compound 100, 4-(7-FLUOROIMIDAZO[1,2-A]PYRIDIN-3-YL)-7-((7′-(METHYL-D3)-2,3,5,6,7′,8′-HEXAHYDRO-6′H-SPIRO[PYRAN-4,5′-[1,7]NAPHTHYRIDINE]-2′-YL)AMINO)ISOINDOL-1-ONE] | 3.1 |
| O=C1NCc2c(-c3cnc4cc(F)ccn34)ccc(Nc3ccc4c(n3)C(N3CCOC5(CC5)C3)CC43CCOCC3)c21 (stereo not drawn) [Compound 111] | 30.2 |
| C[C@@H]1CN(C2CC3(CCOCC3)c3ccc(Nc4ccc(-c5cnc6cc(F)ccn56)c5c4C(=O)NC5)nc32)C[C@@H](C)O1 (stereo partly drawn) [Compound 112] | 48.7 |
| C[C@@H]1CN(C2CC3(CCOCC3)c3ccc(Nc4ccc(-c5cnc6cc(F)ccn56)c5c4C(=O)NC5)nc32)C[C@H](C)O1 (stereo partly drawn) [Compound 113] | 6.21 |
| O=C1NCc2c(-c3cnc4cc(F)ccn34)ccc(Nc3ccc4c(n3)C(N3CC5CCC(C3)O5)CC43CCOCC3)c21 (stereo not drawn) [Compound 116] | 79.8 |
| O=C1NCc2c(-c3cnc4cc(F)ccn34)ccc(Nc3ccc4c(n3)C(NCC(F)(F)F)CC43CCOCC3)c21 (stereo not drawn) [Compound 118] | 71.1 |
| CC(C)CNC1CC2(CCOCC2)c2ccc(Nc3ccc(-c4cnc5cc(F)ccn45)c4c3C(=O)NC4)nc21 (stereo not drawn) [Compound 141] | 3.07 |
| CC(C)NC1CC2(CCOCC2)c2ccc(Nc3ccc(-c4cnc5cc(Cl)ccn45)c4c3C(=O)NC4)nc21 (stereo not drawn) [Compound 142] | 4.52 |
| O=C1NCc2c(-c3cnc4cc(F)ccn34)ccc(Nc3ccc4c(n3)C(N3C[C@H]5C[C@@H]3CO5)CC43CCOCC3)c21 (stereo partly drawn) [Compound 143] | 3.51 |
| CC(=O)N1Cc2nc(Nc3ccc(-c4cnc5cc(F)ccn45)c4c3C(=O)NC4)ccc2C2(CCCCC2)C1 [Compound 145] | 38.1 |
| COc1ccn2c(-c3ccc(Nc4ccc5c(n4)CCCC54CCOCC4)c4c3CNC4=O)cnc2c1 [Compound 148] | 21.8 |
| O=C1NCc2c(-c3cnc4cc(F)c(Cl)cn34)ccc(Nc3ccc4c(n3)CCCC43CCOCC3)c21 [Compound 150] | 30.4 |
| O=C1N=Cc2c(-c3cnc4cc(Cl)ccn34)ccc(Nc3ccc4c(n3)CNCC43CC3)c21 [Compound 152, 4-(7-CHLOROIMIDAZO[1,2-A]PYRIDIN-3-YL)-7-((7′,8′-DIHYDRO-6′H-SPIRO[CYCLOPROPANE-1,5′-[1,7]NAPHTHYRIDINE]-2′-YL)AMINO)ISOINDOL-1-ONE] | 14.4 |
| C#CCN1Cc2nc(Nc3ccc(-c4cnc5cc(F)ccn45)c4c3C(=O)NC4)ccc2C2(CCOCC2)C1 [Compound 155] | 243 |
| C#CCN1Cc2nc(Nc3ccc(-c4cnc5cc(F)ccn45)c4c3C(=O)NC4)ccc2C2(CCOCC2)C1 [Compound 156] | 38.7 |
| CC(C)c1ccn2c(-c3ccc(Nc4ccc5c(n4)C(N(C)C)CC54CCOCC4)c4c3CNC4=O)cnc2c1 (stereo not drawn) [Compound 163, 7-((7-(DIMETHYLAMINO)-2′,3′,5′,6,6′,7-HEXAHYDROSPIRO[CYCLOPENTANE[B]PYRIDINE-5,4′-PYRAN]-2-YL)AMINO)-4-(7-ISOPROPYLIMIDAZO[1,2-A]PYRIDIN-3-YL)ISOINDOL-1-ONE] | 25.3 |
| CN(C)C1CC2(CCOCC2)c2ccc(Nc3ccc(-c4cnc5n4CCCC5)c4c3C(=O)NC4)nc21 (stereo not drawn) [Compound 166, 7-((7-(DIMETHYLAMINO)-2′,3′,5′,6,6′,7-HEXAHYDROSPIRO[CYCLOPENTANE[B]PYRIDINE-5,4′-PYRAN]-2-YL)AMINO)-4-(5,6,7,8-TETRAHYDROIMIDAZO[1,2-A]PYRIDIN-3-YL)ISOINDOL-1-ONE] | 25.7 |
| O=C1NCc2c(-c3cnc4cc(OC(F)F)ccn34)ccc(Nc3ccc4c(n3)C(N3CCC(F)CC3)CC43CCOCC3)c21 (stereo not drawn) [Compound 176] | 12.1 |
| O=C1NCc2c(-c3cnc4cc(OC(F)F)ccn34)ccc(Nc3ccc4c(n3)C(N3CCOCC3)CC43CCOCC3)c21 (stereo not drawn) [Compound 177, 4-(7-(DIFLUOROMETHOXY)IMIDAZO[1,2-A]PYRIDIN-3-YL)-7-((7-MORPHOLINE-2′,3′,5′,6,6′,7-HEXAHVDROSPIRO[B]PYRIDIN-54′-PYRAN]-2-YL)AMINO)ISOINDOL-1-ONE] | 102 |

Next, values leading:

| IC50 [nM] | Molecule |
| --- | --- |
| 4.22 | Cc1cc(Nc2cnc(-c3ccnc4c3ccn4C)c3c2C(=O)NC3)nc2c1C1(CCOCC1)CC2N(C)C (stereo not drawn) [Compound 30] |
| 4.53 | CN(C)C1CCC2(CCOCC2)c2ccc(Nc3ccc(-c4cnc5cc(Cl)ccn45)c4c3C(=O)NC4)nc21 (stereo not drawn) [Compound 31] |
| 4.52 | CN(C)C1CCC2(CCOCC2)c2ccc(Nc3ccc(-c4cnn5cc(F)ccc45)c4c3C(=O)NC4)nc21 (stereo not drawn) [Compound 32] |
| 4.76 | CN(C)C1CCC2(CCOCC2)c2ccc(Nc3ccc(-c4cnn5ccccc45)c4c3C(=O)NC4)nc21 (stereo not drawn) [Compound 33] |
| 8.18 | CN(C)C1CCC2(CCOCC2)c2ccc(Nc3ccc(-c4ccnc5c4ccn5C)c4c3C(=O)NC4)nc21 (stereo not drawn) [Compound 34] |
| 2.73 | CN(C)C1CC2(CCOCC2)c2ccc(Nc3ccc(-c4cnn5cc(F)ccc45)c4c3C(=O)NC4)nc21 (stereo not drawn) [Compound 36] |
| 2.25 | CN(C)C1CC2(CCOCC2)c2ccc(Nc3ccc(-c4cnn5ccccc45)c4c3C(=O)NC4)nc21 (stereo not drawn) [Compound 37] |
| 3.08 | CN(C)C1CCC2(CCOCC2)c2ccc(Nc3ccc(-c4cnn5cccnc45)c4c3C(=O)NC4)nc21 (stereo not drawn) [Compound 45] |
| 92.5 | CN(CC(F)F)C1CC2(CCOCC2)c2ccc(Nc3ccc(-c4cnc5cc(F)ccn45)c4c3C(=O)NC4)nc21 (stereo not drawn) [Compound 114] |
| 5.41 | CN(C)C1CC2(CCOCC2)c2ccc(Nc3ccc(-c4cnc5c(F)cccn45)c4c3C(=O)NC4)nc21 (stereo not drawn) [Compound 159] |
| 18.6 | CN(C)C1CC2(CCOCC2)c2ccc(Nc3ccc(-c4cnc5ccc(F)cn45)c4c3C(=O)NC4)nc21 (stereo not drawn) [Compound 162] |
| 6.88 | COc1ccn2c(-c3ccc(Nc4ccc5c(n4)C(N(C)C)CC54CCOCC4)c4c3CNC4=O)cnc2c1 (stereo not drawn) [Compound 170] |
| 35 | CN(C)C1CC2(CCOCC2)c2ccc(Nc3ccc(-c4cnc5cc(O)ccn45)c4c3C(=O)NC4)nc21 (stereo not drawn) [Compound 171] |
| 16.8 | CN(C)C1CC2(CCOCC2)c2ccc(Nc3ccc(-c4cnc5cc(OC(F)(F)F)ccn45)c4c3C(=O)NC4)nc21 (stereo not drawn) [Compound 175] |

Molecular target: GLK (Homo sapiens (Human), UniProt Q8IVH8)
Test: GLK kinase assay (1 mM ATP system), ADP-Glo
Type: biochemical
Method: as §1, with “Solution” for “Pharmacological Experiment 2:”, “Add” for “Adding”, “signal:” for “signal;”, “microplate reader.” for “instrument.”, “GLK kinase IC50” for “enzymatic IC 50”

Sequence of GLK (Q8IVH8 whole entry, species assumed): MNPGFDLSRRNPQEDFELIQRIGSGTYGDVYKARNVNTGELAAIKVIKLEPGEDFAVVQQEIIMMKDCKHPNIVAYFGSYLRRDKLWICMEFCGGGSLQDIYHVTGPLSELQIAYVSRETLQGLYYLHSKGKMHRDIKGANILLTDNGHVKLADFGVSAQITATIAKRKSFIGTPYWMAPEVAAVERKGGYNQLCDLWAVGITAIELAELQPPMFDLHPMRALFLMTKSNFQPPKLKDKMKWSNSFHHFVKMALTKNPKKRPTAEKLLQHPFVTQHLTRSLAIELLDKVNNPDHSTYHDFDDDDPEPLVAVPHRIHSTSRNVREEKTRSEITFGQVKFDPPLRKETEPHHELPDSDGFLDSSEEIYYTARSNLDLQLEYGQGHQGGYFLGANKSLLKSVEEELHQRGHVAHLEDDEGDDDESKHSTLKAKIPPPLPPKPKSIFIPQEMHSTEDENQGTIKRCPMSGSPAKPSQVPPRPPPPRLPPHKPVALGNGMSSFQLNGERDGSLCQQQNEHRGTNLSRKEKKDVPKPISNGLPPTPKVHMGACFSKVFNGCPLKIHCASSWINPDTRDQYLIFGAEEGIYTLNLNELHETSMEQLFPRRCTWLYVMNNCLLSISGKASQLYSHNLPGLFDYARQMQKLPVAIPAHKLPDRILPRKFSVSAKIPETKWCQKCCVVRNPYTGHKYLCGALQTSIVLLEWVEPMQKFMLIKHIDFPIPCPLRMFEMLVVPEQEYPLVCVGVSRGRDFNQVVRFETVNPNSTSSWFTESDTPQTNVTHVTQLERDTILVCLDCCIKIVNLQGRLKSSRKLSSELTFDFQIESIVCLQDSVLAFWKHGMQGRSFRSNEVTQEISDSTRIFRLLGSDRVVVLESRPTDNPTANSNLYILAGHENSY

| Molecule | IC50 [nM] |
| --- | --- |
| CN(C)C1CCC2(CCOCC2)c2ccc(Nc3ccc(-c4cnc5cc(F)ccn45)c4c3C(=O)NC4)nc21 (stereo not drawn) [Compound 3] | 2860 |
| Cc1cc(Nc2ccc(-c3cnn4cc(F)ccc34)c3c2C(=O)NC3)nc2c1C1(CCOCC1)C[C@H]2N(C)C [Compound 29] | 9.77 |

Results, then the molecule that gave them:

| IC50 [nM] | Molecule |
| --- | --- |
| 596 | CN(C)C1CCC2(CCOCC2)c2ccc(Nc3ccc(-c4cnn5cc(F)ccc45)c4c3C(=O)NC4)nc21 (stereo not drawn) [Compound 32] |
| 631 | CN(C)C1CCC2(CCOCC2)c2ccc(Nc3ccc(-c4cnn5ccccc45)c4c3C(=O)NC4)nc21 (stereo not drawn) [Compound 33] |
| 779 | CN(C)C1CCC2(CCOCC2)c2ccc(Nc3ccc(-c4ccnc5c4ccn5C)c4c3C(=O)NC4)nc21 (stereo not drawn) [Compound 34] |
| 78 | CN(C)C1CC2(CCOCC2)c2ccc(Nc3ccc(-c4cnn5cc(F)ccc45)c4c3C(=O)NC4)nc21 (stereo not drawn) [Compound 36] |
| 158 | CN(C)C1CC2(CCOCC2)c2ccc(Nc3ccc(-c4cnn5ccccc45)c4c3C(=O)NC4)nc21 (stereo not drawn) [Compound 37] |
